Counter-ions that a name gives are not always drawn.
Experiment: in vitro
Settings: rat, gh3-tre-luc cells

Row | Compound | CC50 at 24 h (AC50 (uM) modified / 1000) | also measured
1 | C[C@H]1CC[C@]2(NC1)O[C@H]1C[C@H]3[C@@H]4CC[C@H]5C[C@@H](O[C@@H]6O[C@H](CO)[C@H](O[C@@H]7O[C@H](CO)[C@@H](O)[C@H](O[C@@H]8OC[C@@H](O)[C@H](O)[C@H]8O)[C@H]7O[C@@H]7O[C@H](CO)[C@@H](O)[C@H](O)[C@H]7O)[C@H](O)[C@H]6O)CC[C@]5(C)[C@H]4CC[C@]3(C)[C@H]1[C@@H]2C [alpha-Tomatine] | 2.38 µM | 
2 | C=CCC1([C@@H](C)CCC)C(=O)NC(=O)NC1=O [S-(-)-Secobarbital] | > 90 µM | 
3 | CC1=NN(c2cccc(S(=O)(=O)O)c2)C(=O)C1 [3-(3-Methyl-5-oxo-4,5-dihydro-1H-pyrazol-1-yl)benzenesulfonic acid] | > 90 µM | 
4 | CC(CC(C#N)(c1ccccc1)c1ccccc1)N(C)C (stereo not drawn) [Premethadone] |  | CC50 at 24 h (AC50 (uM) modified / 1000, Tox21_110001=Tox21_112859, viability, 1 nM T3 present, 24 h): 21.6 µM
5 | CN1C(C)(C)CC(O)CC1(C)C [1,2,2,6,6-Pentamethylpiperidin-4-ol] | > 90 µM | 
6 | O=C1c2ccccc2C(=O)C1(O)O [Ninhydrin] | > 90 µM | 
7 | c1ccc(-c2nnn[nH]2)cc1 [5-Phenyl-1H-tetrazole] | > 90 µM | 
8 | CC(/C=C/C=C(\C)C(=O)O[C@@H]1O[C@H](CO[C@@H]2O[C@H](CO)[C@@H](O)[C@H](O)[C@H]2O)[C@@H](O)[C@H](O)[C@H]1O)=C\C=C\C=C(C)\C=C\C=C(/C)C(=O)O[C@@H]1O[C@H](CO[C@@H]2O[C@H](CO)[C@@H](O)[C@H](O)[C@H]2O)[C@@H](O)[C@H](O)[C@H]1O [Crocin] | > 50 µM | 
9 | CC(C)CC(N(C)C)C1(c2ccc(Cl)cc2)CCC1 (stereo not drawn) [Sibutramine hydrochloride] |  | CC50 at 24 h (AC50 (uM) modified / 1000, Tox21_110001=Tox21_111448, viability, 1 nM T3 present, 24 h): > 50 µM
10 | NC(=O)c1cccnc1 [Niacinamide] | > 90 µM | 
11 | O=C1C[C@@H]2OCC=C3CN4CC[C@]56c7ccccc7N1[C@H]5[C@H]2[C@H]3C[C@H]46 [Strychnine] | > 50 µM | 
12 | COc1cc2c(cc1OC)C(C(C(=O)N(CCc1ccc(OC)c(OC)c1OC)CCc1ccc(OC)c(OC)c1OC)c1ccccc1)=NCC2 (stereo not drawn) [Pinokalant hydrochloride] | 21.9 µM | 
13 | C[C@@]12C(=O)OC(=O)[C@]1(C)[C@H]1CC[C@@H]2O1 [Cantharidin] | 2.01 µM | 
14 | c1ccc(OCCOc2ccccc2)cc1 [1,2-Diphenoxyethane] | > 90 µM | 
15 | CC1=NS(=O)(=O)c2cc(Cl)ccc2N1 [Diazoxide] | > 50 µM | 
16 | COC(=O)c1ccccc1C(=O)O [Monomethyl phthalate] | > 90 µM | 
17 | Nc1nc(N)c(N)c(N)n1 [2,4,5,6-Pyrimidinetetramine sulfate (1:1)] | > 90 µM | 
18 | Cc1oc(-c2ccccc2)nc1CCOc1cccc2c1ccn2CCC(=O)O [PD-0333941] | 18.9 µM | 
19 | Cc1ccccc1OP(=O)(Oc1ccccc1C)Oc1ccccc1C [Tri-o-cresyl phosphate] |  | CC50 at 24 h (AC50 (uM) modified / 1000, Tox21_110001=Tox21_202983, viability, 1 nM T3 present, 24 h): 63.4 µM
20 | CSCCC=O [3-(Methylthio)propanal] | > 100 µM | 
21 | O=C(O)/C=C/C(O)c1ccc(Cl)cc1 (stereo not drawn) [Sodium (2E)-4-(4-chlorophenyl)-4-hydroxybut-2-enoate hydrate] | > 50 µM | 
22 | COC(=O)c1cccc(Cl)c1 [Methyl 3-chlorobenzoate] | > 90 µM | 

Row | Compound | CC50 at 24 h (AC50 (uM) modified / 1000) | also measured
23 | CCCCCCCCCCCl [1-Chlorodecane] | > 90 µM | 
24 | Clc1cccc(Cl)c1Cl [1,2,3-Trichlorobenzene] | > 90 µM | 
25 | COC(=O)c1cc(Cl)cc(Cl)c1 [Methyl 3,5-dichlorobenzoate] | > 90 µM | 
26 | CN(C)Cc1cc(C(C)(C)C)c(O)c(C(C)(C)C)c1 [2,6-Di-tert-butyl-4-[(dimethylamino)methyl]phenol] | 50.7 µM | 
27 | Cn1cnc2c1c(=O)[nH]c(=O)n2C [Theobromine] | > 40 µM | 
28 | CC(C)OS(C)(=O)=O [Isopropyl methanesulfonate] |  | CC50 at 24 h (AC50 (uM) modified / 1000, Tox21_110001=Tox21_200855, viability, 1 nM T3 present, 24 h): > 90 µM
29 | CCCCCCCCCCCCOCCO [2-(Dodecyloxy)ethanol] | > 90 µM | 
30 | O=[N+]([O-])c1cc(Cl)c(Cl)cc1Cl [2,4,5-Trichloronitrobenzene] |  | CC50 at 24 h (AC50 (uM) modified / 1000, Tox21_110001=Tox21_200937, viability, 1 nM T3 present, 24 h): > 90 µM
31 | CCOC(=O)C1=C(C)NC(C)=C(C(=O)OC)C1c1cccc([N+](=O)[O-])c1 (stereo not drawn) [Nitrendipine] | > 50 µM | 
32 | O=C1OC(O)C(C(Cl)Cl)=C1Cl (stereo not drawn) [3-Chloro-4-(dichloromethyl)-5-hydroxy-2(5H)-furanone] | 35 µM | 
33 | C[C@]12CC[C@H]3[C@@H](CCC4=CC(=O)CC[C@@H]43)[C@@H]1CC[C@@H]2O [Nandrolone] | > 90 µM | 
34 | COC(=O)[C@H]1[C@H]2C[C@@H]3c4[nH]c5cc(OC)ccc5c4CCN3C[C@H]2C[C@H](OC)[C@@H]1OC [Metoserpate hydrochloride] | > 50 µM | 
35 | Oc1ccc2ccccc2c1 [2-Naphthalenol] | > 90 µM | 
36 | C=CC[C@]1(O)CC[C@H]2[C@@H]3CCC4=CC(=O)CCC4=C3C=C[C@@]21C [Altrenogest] | > 50 µM | 
37 | CN1C(CCl)Nc2cc(Cl)c(S(N)(=O)=O)cc2S1(=O)=O (stereo not drawn) [Methyclothiazide] | > 50 µM | 
38 | CC(O)COc1ccccc1 (stereo not drawn) [1-Phenoxy-2-propanol] | > 90 µM | 
39 | c1ccc(OCc2ccc(CCCN3CCOCC3)cc2)cc1 [Fomocaine] | 16.1 µM | 
40 | Cc1c([N+](=O)[O-])cc2c(c1[N+](=O)[O-])C(C)(C)CC2(C)C [1,1,3,3,5-Pentamethyl-4,6-dinitro-2,3-dihydro-1H-indene] |  | CC50 at 24 h (AC50 (uM) modified / 1000, Tox21_110001=Tox21_302237, viability, 1 nM T3 present, 24 h): 74.8 µM
41 | CC1(c2ccccc2)OC(C(=O)O)=CC1=O (stereo not drawn) [Acifran] | > 50 µM | 
42 | Nc1nc(-c2ccc([N+](=O)[O-])cc2)cs1 [2-Amino-4-(p-nitrophenyl)thiazole] | > 90 µM | 
43 | CC(C)CCOC(=O)CC(C)C [3-Methylbutyl 3-methylbutanoate] | > 90 µM | 
44 | CCCCCCCCCCl [1-Chlorononane] | > 90 µM | 

Row | Compound | CC50 at 24 h (AC50 (uM) modified / 1000) | also measured
45 | CC1=C2[C@H]3OC(=O)[C@@H](C)[C@@H]3CC[C@@]2(C)C=CC1=O [alpha-Santonin] |  | CC50 at 24 h (AC50 (uM) modified / 1000, Tox21_110001=Tox21_110445, viability, 1 nM T3 present, 24 h): > 50 µM
46 | CC(CN1CC(=O)NC(=O)C1)N1CC(=O)NC(=O)C1 (stereo not drawn) [ICRF-159] | > 90 µM | 
47 | CC(C)OC=O [Isopropyl formate] | > 100 µM | 
48 | O=C(O)c1ccccc1-n1cc(C(=O)O)c(=O)c2cc(Nc3c(F)cc(F)cc3Cl)c(Cl)cc21 [AVE9423] | > 90 µM | 
49 | O=c1[nH]cnc2[nH]cc(CN3CCCCC3)c12 [5-(Piperidin-1-ylmethyl)-3,7-dihydro-4H-pyrrolo[2,3-d]pyrimidin-4-one] | > 50 µM | 
50 | O=c1[nH]c(=O)[nH]c(=O)[nH]1 [Cyanuric acid] | > 90 µM | 
51 | OC1CCCC1 [Cyclopentanol] | > 90 µM | 
52 | CC(C)(c1ccccc1)c1cc(-n2nc3ccccc3n2)c(O)c(C(C)(C)c2ccccc2)c1 [2-(2H-Benzotriazol-2-yl)-4,6-bis(1-methyl-1-phenylethyl)phenol] | > 50 µM | 
53 | CCCCCC(=O)OCCc1ccccc1 [2-Phenylethyl hexanoate] | > 90 µM | 
54 | CCC(C)(C)c1cc(-n2nc3ccccc3n2)c(O)c(C(C)(C)CC)c1 [2-(2H-Benzotriazol-2-yl)-4,6-bis(1,1-dimethylpropyl)phenol] | > 90 µM | 
55 | N#C/N=C1\SCCN1Cc1ccc(Cl)nc1 [Thiacloprid] | > 90 µM | 
56 | CC(C)C[C@H]1C(=O)N2CCC[C@H]2[C@]2(O)O[C@](NC(=O)[C@@H]3C=C4c5cccc6[nH]c(Br)c(c56)C[C@H]4N(C)C3)(C(C)C)C(=O)N12 [Bromocriptine] | > 50 µM | 
57 | CNC1(C)C2CCC(C2)C1(C)C (stereo not drawn) [Mecamylamine] | > 50 µM | 
58 | CC(C)N(CCC(C(N)=O)(c1ccccc1)c1ccccn1)C(C)C (stereo not drawn) [Disopyramide] | > 50 µM | 
59 | O=C(NS(=O)(=O)/C=C/c1ccccc1)c1ccc(F)cc1Cl [PharmaGSID_48516] | > 90 µM | 
60 | COC(=O)CC(=O)C(C)(C)C [Methyl pivaloylacetate] | > 90 µM | 
61 | Oc1ccc(Sc2ccc(O)cc2)cc1 [4,4'-Thiodiphenol] | 47.9 µM | 
62 | Cc1cccc2ccccc12 [1-Methylnaphthalene] | > 90 µM | 
63 | CCCCCOC(=O)c1ccccc1C(=O)OCCCCC [Dipentyl phthalate] | > 90 µM | 
64 | O=C(/C=C/c1ccc(O)c(O)c1)O[C@@H]1C[C@](O)(C(=O)O)C[C@@H](O)[C@H]1O [Chlorogenic acid] | > 90 µM | 
65 | Oc1ccc(Cl)c(Cl)c1 [3,4-Dichlorophenol] |  | CC50 at 24 h (AC50 (uM) modified / 1000, Tox21_110001=Tox21_200675, viability, 1 nM T3 present, 24 h): > 90 µM
66 | CCCN(CCC)c1c([N+](=O)[O-])cc(S(C)(=O)=O)cc1[N+](=O)[O-] [Nitralin] |  | CC50 at 24 h (AC50 (uM) modified / 1000, Tox21_110001=Tox21_301901, viability, 1 nM T3 present, 24 h): > 90 µM

From article PMC6792352, “Limited Chemical Structural Diversity Found to Modulate Thyroid Hormone Receptor in the Tox21 Chemical Library” (Environmental Health Perspectives, 2019)
